Assay results: ChEMBL document CHEMBL4507291 (2021)

Columns and labels:
[1] = molecular target: Tyrosine-protein kinase Blk (Homo sapiens) (UniProt P51451)
[2] = molecular target: Calcium/calmodulin-dependent protein kinase type 1G (Homo sapiens) (UniProt Q96NX5)
[3] = molecular target: Cyclin-dependent kinase 2 (Homo sapiens) (UniProt P24941)
[4] = molecular target: Casein kinase I isoform gamma-3 (Homo sapiens) (UniProt Q9Y6M4)
[5] = molecular target: Serine/threonine-protein kinase DCLK1 (Homo sapiens) (UniProt O15075)
[6] = molecular target: T1, Myotonin-protein kinase (Homo sapiens) (UniProt Q09013)
T1 sequence (whole entry): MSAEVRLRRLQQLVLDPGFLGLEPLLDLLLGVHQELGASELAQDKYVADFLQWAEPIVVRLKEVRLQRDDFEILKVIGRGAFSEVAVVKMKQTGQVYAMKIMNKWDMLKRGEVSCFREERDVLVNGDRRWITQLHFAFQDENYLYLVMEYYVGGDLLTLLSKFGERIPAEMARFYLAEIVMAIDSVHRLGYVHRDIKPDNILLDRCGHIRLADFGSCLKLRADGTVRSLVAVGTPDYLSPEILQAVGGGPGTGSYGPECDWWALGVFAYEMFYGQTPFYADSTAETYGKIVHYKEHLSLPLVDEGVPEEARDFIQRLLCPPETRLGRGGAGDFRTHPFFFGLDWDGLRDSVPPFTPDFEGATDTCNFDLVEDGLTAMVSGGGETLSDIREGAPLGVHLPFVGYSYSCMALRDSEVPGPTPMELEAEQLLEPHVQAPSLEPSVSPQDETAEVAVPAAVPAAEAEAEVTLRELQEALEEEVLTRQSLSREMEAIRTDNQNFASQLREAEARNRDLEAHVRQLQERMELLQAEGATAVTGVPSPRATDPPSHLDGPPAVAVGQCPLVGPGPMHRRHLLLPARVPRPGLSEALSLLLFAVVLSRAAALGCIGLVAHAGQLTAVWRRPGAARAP

[7] = molecular target: Tyrosine-protein kinase Fgr (Homo sapiens) (UniProt P09769)
[8] = molecular target: Cyclin-G-associated kinase (Homo sapiens) (UniProt O14976)
[9] = molecular target: Glycogen synthase kinase-3 alpha (Homo sapiens) (UniProt P49840)
Sequence of Glycogen synthase kinase-3 alpha (Homo sapiens) (P49840 2-483 limits assumed): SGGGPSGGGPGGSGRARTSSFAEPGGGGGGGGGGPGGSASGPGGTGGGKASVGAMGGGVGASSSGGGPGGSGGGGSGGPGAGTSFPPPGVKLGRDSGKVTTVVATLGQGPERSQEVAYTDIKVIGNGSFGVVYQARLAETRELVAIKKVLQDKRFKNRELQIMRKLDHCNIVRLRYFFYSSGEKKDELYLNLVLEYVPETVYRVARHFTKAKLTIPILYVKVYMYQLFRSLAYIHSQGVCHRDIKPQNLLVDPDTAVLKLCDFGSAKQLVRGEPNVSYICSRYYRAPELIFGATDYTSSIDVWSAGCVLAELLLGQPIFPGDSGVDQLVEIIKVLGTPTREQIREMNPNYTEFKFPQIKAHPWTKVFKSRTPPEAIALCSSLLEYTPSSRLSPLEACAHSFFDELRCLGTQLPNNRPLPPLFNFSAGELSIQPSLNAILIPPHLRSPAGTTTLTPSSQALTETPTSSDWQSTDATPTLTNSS

[10] = molecular target: Serine/threonine-protein kinase haspin (Homo sapiens) (UniProt Q8TF76)
[11] = molecular target: Tyrosine-protein kinase HCK (Homo sapiens) (UniProt P08631)
[12] = molecular target: Homeodomain-interacting protein kinase 1 (Homo sapiens) (UniProt Q86Z02)
[13] = system: Mast/stem cell growth factor receptor Kit (Homo sapiens), P10721 [L576P]
Sequence of Mast/stem cell growth factor receptor Kit (Homo sapiens), P10721 [L576P] (P10721 whole entry L576P): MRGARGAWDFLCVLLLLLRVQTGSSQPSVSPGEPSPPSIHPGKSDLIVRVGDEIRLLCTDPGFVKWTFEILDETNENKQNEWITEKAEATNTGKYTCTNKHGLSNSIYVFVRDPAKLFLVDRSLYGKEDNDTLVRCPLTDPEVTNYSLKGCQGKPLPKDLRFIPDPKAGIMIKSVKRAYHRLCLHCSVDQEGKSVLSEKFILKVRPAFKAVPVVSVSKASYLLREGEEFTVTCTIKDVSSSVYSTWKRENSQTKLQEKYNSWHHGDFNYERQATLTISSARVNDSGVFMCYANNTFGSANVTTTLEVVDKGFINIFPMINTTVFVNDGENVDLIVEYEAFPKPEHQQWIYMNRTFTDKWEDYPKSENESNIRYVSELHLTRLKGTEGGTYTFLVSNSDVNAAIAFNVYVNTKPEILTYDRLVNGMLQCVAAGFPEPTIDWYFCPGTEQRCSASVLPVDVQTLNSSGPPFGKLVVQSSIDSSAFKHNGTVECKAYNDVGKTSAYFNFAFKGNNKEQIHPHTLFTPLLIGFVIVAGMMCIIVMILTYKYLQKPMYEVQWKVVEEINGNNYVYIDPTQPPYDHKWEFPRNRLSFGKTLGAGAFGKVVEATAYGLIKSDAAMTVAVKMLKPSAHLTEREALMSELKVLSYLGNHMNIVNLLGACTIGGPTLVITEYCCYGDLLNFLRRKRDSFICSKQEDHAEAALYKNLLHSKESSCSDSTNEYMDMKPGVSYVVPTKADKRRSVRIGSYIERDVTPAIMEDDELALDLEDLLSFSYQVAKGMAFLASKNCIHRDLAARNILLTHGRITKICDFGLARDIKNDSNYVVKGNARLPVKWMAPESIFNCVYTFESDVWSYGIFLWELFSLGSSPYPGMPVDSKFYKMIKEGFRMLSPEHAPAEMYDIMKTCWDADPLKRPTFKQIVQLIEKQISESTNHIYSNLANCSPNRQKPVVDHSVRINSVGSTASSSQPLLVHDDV

[14] = molecular target: Mitogen-activated protein kinase kinase kinase kinase 4 (Homo sapiens) (UniProt O95819)
[15] = molecular target: Serine/threonine-protein kinase MARK1 (Homo sapiens) (UniProt Q9P0L2)
Sequence of Serine/threonine-protein kinase MARK1 (Homo sapiens) (Q9P0L2 whole entry, looked up): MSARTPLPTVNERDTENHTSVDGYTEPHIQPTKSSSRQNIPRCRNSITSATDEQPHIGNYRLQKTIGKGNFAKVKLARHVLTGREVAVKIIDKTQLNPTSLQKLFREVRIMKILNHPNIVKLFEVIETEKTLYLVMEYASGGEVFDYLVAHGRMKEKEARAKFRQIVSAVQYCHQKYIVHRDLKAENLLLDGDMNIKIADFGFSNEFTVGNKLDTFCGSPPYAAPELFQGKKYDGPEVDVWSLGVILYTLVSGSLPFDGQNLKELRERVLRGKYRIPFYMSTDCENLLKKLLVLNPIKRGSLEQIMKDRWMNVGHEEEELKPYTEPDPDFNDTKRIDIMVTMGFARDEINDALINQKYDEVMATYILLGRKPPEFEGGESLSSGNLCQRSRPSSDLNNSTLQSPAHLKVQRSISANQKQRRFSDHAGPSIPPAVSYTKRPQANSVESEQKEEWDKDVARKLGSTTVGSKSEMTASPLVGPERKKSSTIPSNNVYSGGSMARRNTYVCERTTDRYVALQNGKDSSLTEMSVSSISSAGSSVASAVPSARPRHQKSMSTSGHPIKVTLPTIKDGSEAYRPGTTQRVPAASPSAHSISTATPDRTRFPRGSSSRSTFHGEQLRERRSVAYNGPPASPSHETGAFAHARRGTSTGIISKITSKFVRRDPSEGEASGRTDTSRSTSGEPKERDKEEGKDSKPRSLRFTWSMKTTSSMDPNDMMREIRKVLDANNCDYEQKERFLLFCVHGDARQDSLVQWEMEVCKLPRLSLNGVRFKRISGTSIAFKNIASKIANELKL

[16] = molecular target: Serine/threonine-protein kinase mTOR (Homo sapiens) (UniProt P42345)
[17] = molecular target: Serine/threonine-protein kinase N2 (Homo sapiens) (UniProt Q16513)
Sequence of Serine/threonine-protein kinase N2 (Homo sapiens) (Q16513 whole entry, looked up): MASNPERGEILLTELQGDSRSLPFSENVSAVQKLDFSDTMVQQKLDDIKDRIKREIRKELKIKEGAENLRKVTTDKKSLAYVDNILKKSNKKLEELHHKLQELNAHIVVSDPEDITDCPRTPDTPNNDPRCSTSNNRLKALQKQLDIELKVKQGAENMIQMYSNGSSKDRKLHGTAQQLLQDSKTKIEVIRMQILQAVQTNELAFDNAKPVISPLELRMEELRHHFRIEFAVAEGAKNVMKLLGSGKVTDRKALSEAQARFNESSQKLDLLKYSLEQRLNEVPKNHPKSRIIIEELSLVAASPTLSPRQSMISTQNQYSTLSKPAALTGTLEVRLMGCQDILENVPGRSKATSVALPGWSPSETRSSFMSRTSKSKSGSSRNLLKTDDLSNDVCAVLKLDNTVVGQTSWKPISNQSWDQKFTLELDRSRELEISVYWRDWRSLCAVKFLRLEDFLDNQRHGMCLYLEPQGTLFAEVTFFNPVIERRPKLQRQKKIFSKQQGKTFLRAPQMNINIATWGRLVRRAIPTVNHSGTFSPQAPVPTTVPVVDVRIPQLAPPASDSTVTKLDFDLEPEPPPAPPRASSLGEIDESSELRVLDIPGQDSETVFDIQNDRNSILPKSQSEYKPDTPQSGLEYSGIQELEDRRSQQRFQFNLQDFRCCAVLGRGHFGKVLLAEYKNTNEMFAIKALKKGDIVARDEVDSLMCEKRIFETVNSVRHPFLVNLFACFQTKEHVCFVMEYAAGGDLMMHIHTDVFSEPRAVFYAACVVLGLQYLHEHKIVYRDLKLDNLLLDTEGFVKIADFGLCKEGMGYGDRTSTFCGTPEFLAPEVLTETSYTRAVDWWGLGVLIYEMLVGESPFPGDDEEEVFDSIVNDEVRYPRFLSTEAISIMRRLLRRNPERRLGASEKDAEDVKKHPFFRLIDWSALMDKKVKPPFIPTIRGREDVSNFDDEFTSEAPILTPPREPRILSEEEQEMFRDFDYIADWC

[18] = molecular target: T2, Serine/threonine-protein kinase D1 (Homo sapiens) (UniProt Q15139)
T2 sequence (whole entry): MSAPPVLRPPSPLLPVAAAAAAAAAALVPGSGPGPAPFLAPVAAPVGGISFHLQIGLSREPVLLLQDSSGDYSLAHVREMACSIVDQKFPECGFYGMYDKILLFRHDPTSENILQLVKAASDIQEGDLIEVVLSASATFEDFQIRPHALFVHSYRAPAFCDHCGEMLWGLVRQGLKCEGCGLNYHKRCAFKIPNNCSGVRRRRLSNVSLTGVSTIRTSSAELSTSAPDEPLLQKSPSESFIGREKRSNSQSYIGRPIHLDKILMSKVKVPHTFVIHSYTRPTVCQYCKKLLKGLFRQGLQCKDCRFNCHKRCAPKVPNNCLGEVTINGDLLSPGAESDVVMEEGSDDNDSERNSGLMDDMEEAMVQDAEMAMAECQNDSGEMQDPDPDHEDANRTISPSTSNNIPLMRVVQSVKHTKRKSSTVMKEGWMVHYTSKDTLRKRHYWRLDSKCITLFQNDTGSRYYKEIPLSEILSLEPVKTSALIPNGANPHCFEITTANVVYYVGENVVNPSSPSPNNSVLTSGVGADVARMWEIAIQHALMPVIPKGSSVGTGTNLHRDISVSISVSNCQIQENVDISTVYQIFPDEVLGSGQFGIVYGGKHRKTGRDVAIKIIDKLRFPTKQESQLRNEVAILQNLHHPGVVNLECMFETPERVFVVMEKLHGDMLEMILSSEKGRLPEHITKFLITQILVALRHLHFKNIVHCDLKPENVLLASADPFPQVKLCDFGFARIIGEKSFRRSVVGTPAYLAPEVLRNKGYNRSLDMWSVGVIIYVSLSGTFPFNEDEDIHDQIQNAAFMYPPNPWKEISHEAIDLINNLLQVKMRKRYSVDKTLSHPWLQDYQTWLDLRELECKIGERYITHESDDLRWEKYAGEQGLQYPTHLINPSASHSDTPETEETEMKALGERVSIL

[19] = molecular target: Dual specificity testis-specific protein kinase 1 (Homo sapiens) (UniProt Q15569)
Sequence of Dual specificity testis-specific protein kinase 1 (Homo sapiens) (Q15569 whole entry, looked up): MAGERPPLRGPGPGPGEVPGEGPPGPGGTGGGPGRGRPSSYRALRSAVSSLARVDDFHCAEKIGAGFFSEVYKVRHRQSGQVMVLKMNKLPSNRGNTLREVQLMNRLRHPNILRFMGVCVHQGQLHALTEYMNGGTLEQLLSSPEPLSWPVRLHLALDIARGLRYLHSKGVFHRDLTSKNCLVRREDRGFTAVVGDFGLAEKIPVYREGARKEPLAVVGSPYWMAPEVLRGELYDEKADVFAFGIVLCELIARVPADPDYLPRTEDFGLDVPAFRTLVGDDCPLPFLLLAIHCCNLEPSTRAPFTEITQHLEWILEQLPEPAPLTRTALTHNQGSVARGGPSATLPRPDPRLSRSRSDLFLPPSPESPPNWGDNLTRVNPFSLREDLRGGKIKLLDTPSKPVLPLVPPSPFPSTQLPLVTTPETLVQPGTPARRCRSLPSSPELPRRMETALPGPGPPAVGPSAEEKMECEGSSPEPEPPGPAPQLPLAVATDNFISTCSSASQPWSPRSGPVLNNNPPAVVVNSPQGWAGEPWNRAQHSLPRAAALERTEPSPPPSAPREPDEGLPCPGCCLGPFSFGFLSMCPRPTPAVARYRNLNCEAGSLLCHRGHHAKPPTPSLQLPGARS

[20] = molecular target: Serine/threonine-protein kinase 32B (Homo sapiens) (UniProt Q9NY57)
[21] = molecular target: D(4) dopamine receptor (Homo sapiens) (UniProt P21917); conditions: Compound concentration 10.0 uM
Sequence of D(4) dopamine receptor (Homo sapiens) (P21917 whole entry): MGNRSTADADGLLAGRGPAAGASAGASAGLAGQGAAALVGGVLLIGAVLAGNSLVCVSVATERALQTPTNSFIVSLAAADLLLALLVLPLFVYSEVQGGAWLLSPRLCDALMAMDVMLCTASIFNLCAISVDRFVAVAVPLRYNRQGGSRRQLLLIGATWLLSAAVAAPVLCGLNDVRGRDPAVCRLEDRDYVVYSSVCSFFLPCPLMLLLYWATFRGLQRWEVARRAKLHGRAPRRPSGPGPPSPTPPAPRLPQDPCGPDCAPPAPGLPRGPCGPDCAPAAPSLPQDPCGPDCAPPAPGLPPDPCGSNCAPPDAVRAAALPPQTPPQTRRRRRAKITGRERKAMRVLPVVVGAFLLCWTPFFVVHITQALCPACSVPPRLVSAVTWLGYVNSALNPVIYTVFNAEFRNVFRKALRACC

[22] = molecular target: D(1B) dopamine receptor (Homo sapiens) (UniProt P21918); conditions: Compound concentration 10.0 uM
[23] = molecular target: GABA-A receptor; anion channel (Rattus norvegicus) (UniProt O09028+P15431+P18506+P18508+P19969+P20236+P23574+P23576+P28471+P28473+P30191+P62813+P63079+P63138+Q91ZM7+Q9ES14); conditions: Compound concentration 10.0 uM
[24] = Compound concentration 1000.0 nM
[25] = Compound concentration 100.0 nM

Sequence of Tyrosine-protein kinase Blk (Homo sapiens) (P51451 2-505 limits assumed): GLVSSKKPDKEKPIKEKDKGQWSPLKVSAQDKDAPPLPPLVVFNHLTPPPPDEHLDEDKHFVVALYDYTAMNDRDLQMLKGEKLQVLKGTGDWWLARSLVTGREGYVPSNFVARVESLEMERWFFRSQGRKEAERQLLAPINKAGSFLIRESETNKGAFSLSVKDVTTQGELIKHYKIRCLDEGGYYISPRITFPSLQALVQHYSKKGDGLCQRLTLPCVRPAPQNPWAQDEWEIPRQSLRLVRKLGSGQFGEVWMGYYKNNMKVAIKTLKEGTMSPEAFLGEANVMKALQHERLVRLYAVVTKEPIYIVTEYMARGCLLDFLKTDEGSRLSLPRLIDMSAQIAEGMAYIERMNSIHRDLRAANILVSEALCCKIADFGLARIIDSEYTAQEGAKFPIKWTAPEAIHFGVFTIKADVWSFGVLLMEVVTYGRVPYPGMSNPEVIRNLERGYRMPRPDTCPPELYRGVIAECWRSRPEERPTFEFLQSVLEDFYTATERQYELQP

C[C@@H]1CN(c2cc(-c3nn(C)c4ccc(OC5(C)CC5)cc34)ncn2)C[C@H](C)O1 [MLi-2-NC]
inactive: residual activity [1, 24] 95% | residual activity [2, 24] 82% | residual activity [3, 24] 73% | residual activity [4, 24] 100% | residual activity [5, 24] 64% | residual activity [6, 24] 100% | residual activity [7, 24] 90% | residual activity [8, 24] 86% | residual activity [9, 24] 86% | residual activity [10, 24] 99% | residual activity [11, 24] 96% | residual activity [12, 24] 85% | residual activity [13, 24] 100% | residual activity [14, 24] 100% | residual activity [15, 24] 100% | residual activity [16, 24] 100% | residual activity [17, 24] 100% | residual activity [18, 24] 82% | residual activity [19, 24] 100% | residual activity [20, 24] 100% | inhibition [21] -2.65% | inhibition [22] 3.61% | inhibition [23] 2.92%

C[C@@H]1CN(c2cc(-c3n[nH]c4ccc(OC5(C)CC5)cc34)ncn2)C[C@H](C)O1 [MLi-2]
inactive: residual activity [1, 25] 83% | residual activity [2, 25] 91% | residual activity [3, 25] 96% | residual activity [4, 25] 95% | residual activity [5, 25] 81% | residual activity [6, 25] 85% | residual activity [7, 25] 89% | residual activity [8, 25] 86% | residual activity [9, 25] 100% | residual activity [10, 25] 74% | residual activity [11, 25] 84% | residual activity [12, 25] 69% | residual activity [13, 25] 100% | residual activity [14, 25] 98% | residual activity [15, 25] 100% | residual activity [16, 25] 99% | residual activity [17, 25] 89% | residual activity [18, 25] 84% | residual activity [19, 25] 75% | residual activity [20, 25] 92% | inhibition [21] -4.87% | inhibition [22] 16.1% | inhibition [23] 7.14%
